Experiments:
[1] = molecular target: Mitogen-activated protein kinase 14 (Homo sapiens) (UniProt Q16539); conditions: Compound concentration 1000.0 nM
[2] = molecular target: Serine/threonine-protein kinase 10 (Homo sapiens) (UniProt O94804); conditions: Compound concentration 1000.0 nM
[3] = test system: Receptor-type tyrosine-protein kinase FLT3 (Homo sapiens), P36888 [D835Y]; conditions: Compound concentration 1000.0 nM
[4] = molecular target: 5'-AMP-activated protein kinase catalytic subunit alpha-2 (Homo sapiens) (UniProt P54646); conditions: Compound concentration 1000.0 nM
[5] = molecular target: Activin receptor type-1B (Homo sapiens) (UniProt P36896); conditions: Compound concentration 1000.0 nM
[6] = molecular target: Tyrosine-protein kinase HCK (Homo sapiens) (UniProt P08631); conditions: Compound concentration 1000.0 nM
[7] = test system: Mast/stem cell growth factor receptor Kit (Homo sapiens), P10721 [V559D,V654A]; conditions: Compound concentration 1000.0 nM
[8] = molecular target: Dual specificity mitogen-activated protein kinase kinase 7 (Homo sapiens) (UniProt O14733); conditions: Compound concentration 1000.0 nM
[9] = molecular target: Tyrosine-protein kinase Fgr (Homo sapiens) (UniProt P09769); conditions: Compound concentration 1000.0 nM
[10] = molecular target: MAP kinase-activated protein kinase 2 (Homo sapiens) (UniProt P49137); conditions: Compound concentration 1000.0 nM
[11] = molecular target: Serine/threonine-protein kinase 35 (Homo sapiens) (UniProt Q8TDR2); conditions: Compound concentration 1000.0 nM
[12] = molecular target: Cyclin-dependent kinase 9 (Homo sapiens) (UniProt P50750); conditions: Compound concentration 1000.0 nM
[13] = molecular target: Calcium/calmodulin-dependent protein kinase type 1B (Homo sapiens) (UniProt Q6P2M8); conditions: Compound concentration 1000.0 nM
[14] = molecular target: Inhibitor of nuclear factor kappa-B kinase subunit alpha (Homo sapiens) (UniProt O15111); conditions: Compound concentration 1000.0 nM
[15] = molecular target: Mitogen-activated protein kinase kinase kinase 19 (Homo sapiens) (UniProt Q56UN5); conditions: Compound concentration 1000.0 nM
[16] = molecular target: Serine/threonine-protein kinase LATS1 (Homo sapiens) (UniProt O95835); conditions: Compound concentration 1000.0 nM
[17] = molecular target: Leucine-rich repeat serine/threonine-protein kinase 2 (Homo sapiens) (UniProt Q5S007); conditions: Compound concentration 1000.0 nM
[18] = molecular target: cAMP-dependent protein kinase catalytic subunit alpha (Homo sapiens) (UniProt P17612); conditions: Compound concentration 1000.0 nM
[19] = molecular target: Mitogen-activated protein kinase 11 (Homo sapiens) (UniProt Q15759); conditions: Compound concentration 1000.0 nM
[20] = molecular target: Fibroblast growth factor receptor 3 (Homo sapiens) (UniProt P22607); conditions: Compound concentration 1000.0 nM
[21] = molecular target: Serine/threonine-protein kinase RIO1 (Homo sapiens) (UniProt Q9BRS2); conditions: Compound concentration 1000.0 nM
[22] = molecular target: Epithelial discoidin domain-containing receptor 1 (Homo sapiens) (UniProt Q08345); conditions: Compound concentration 1000.0 nM
[23] = test system: Tyrosine-protein kinase ABL1 (Homo sapiens), P00519 [Q252H]; conditions: Compound concentration 1000.0 nM
[24] = molecular target: cGMP-dependent protein kinase 1 (Homo sapiens) (UniProt Q13976); conditions: Compound concentration 1000.0 nM
[25] = molecular target: 5-hydroxytryptamine receptor 2A (Homo sapiens) (UniProt P28223); conditions: Compound concentration 10.0 uM
[26] = molecular target: Sodium-dependent noradrenaline transporter (Homo sapiens) (UniProt P23975); conditions: Compound concentration 10.0 uM
[27] = molecular target: G protein-coupled receptor kinase 4 (Homo sapiens) (UniProt P32298); conditions: Compound concentration 1000.0 nM
[28] = molecular target: Cyclin-dependent kinase 8 (Homo sapiens) (UniProt P49336); conditions: Compound concentration 1000.0 nM
[29] = molecular target: Serine/threonine-protein kinase N1 (Homo sapiens) (UniProt Q16512); conditions: Compound concentration 1000.0 nM
[30] = molecular target: Serine/threonine-protein kinase Sgk1 (Homo sapiens) (UniProt O00141); conditions: Compound concentration 1000.0 nM
[31] = molecular target: Wee1-like protein kinase 2 (Homo sapiens) (UniProt P0C1S8); conditions: Compound concentration 1000.0 nM
[32] = molecular target: Serine/threonine-protein kinase DCLK1 (Homo sapiens) (UniProt O15075); conditions: Compound concentration 1000.0 nM
[33] = molecular target: Serine/threonine-protein kinase MARK1 (Homo sapiens) (UniProt Q9P0L2); conditions: Compound concentration 1000.0 nM
[34] = molecular target: Vascular endothelial growth factor receptor 2 (Homo sapiens) (UniProt P35968); conditions: Compound concentration 1000.0 nM
[35] = molecular target: Casein kinase II subunit alpha (Homo sapiens) (UniProt P68400); conditions: Compound concentration 1000.0 nM
[36] = molecular target: Inhibitor of nuclear factor kappa-B kinase subunit epsilon (Homo sapiens) (UniProt Q14164); conditions: Compound concentration 1000.0 nM
[37] = molecular target: Tyrosine-protein kinase ZAP-70 (Homo sapiens) (UniProt P43403); conditions: Compound concentration 1000.0 nM
[38] = test system: Receptor-type tyrosine-protein kinase FLT3 (Homo sapiens), P36888 [K663Q]; conditions: Compound concentration 1000.0 nM
[39] = molecular target: Serine/threonine-protein kinase D3 (Homo sapiens) (UniProt O94806); conditions: Compound concentration 1000.0 nM
[40] = molecular target: Serine/threonine-protein kinase Sgk3 (Homo sapiens) (UniProt Q96BR1); conditions: Compound concentration 1000.0 nM
[41] = molecular target: Mitogen-activated protein kinase kinase kinase 12 (Homo sapiens) (UniProt Q12852); conditions: Compound concentration 1000.0 nM
[42] = molecular target: Tyrosine-protein kinase JAK1 (Homo sapiens) (UniProt P23458); conditions: Compound concentration 1000.0 nM
[43] = molecular target: Tyrosine-protein kinase receptor UFO (Homo sapiens) (UniProt P30530); conditions: Compound concentration 1000.0 nM
[44] = molecular target: Transient receptor potential cation channel subfamily M member 6 (Homo sapiens) (UniProt Q9BX84); conditions: Compound concentration 1000.0 nM
[45] = molecular target: Phosphorylase b kinase regulatory subunit alpha, liver isoform (Homo sapiens) (UniProt P46019); conditions: Compound concentration 1000.0 nM

Sequence of Leucine-rich repeat serine/threonine-protein kinase 2 (Homo sapiens) (Q5S007 whole entry): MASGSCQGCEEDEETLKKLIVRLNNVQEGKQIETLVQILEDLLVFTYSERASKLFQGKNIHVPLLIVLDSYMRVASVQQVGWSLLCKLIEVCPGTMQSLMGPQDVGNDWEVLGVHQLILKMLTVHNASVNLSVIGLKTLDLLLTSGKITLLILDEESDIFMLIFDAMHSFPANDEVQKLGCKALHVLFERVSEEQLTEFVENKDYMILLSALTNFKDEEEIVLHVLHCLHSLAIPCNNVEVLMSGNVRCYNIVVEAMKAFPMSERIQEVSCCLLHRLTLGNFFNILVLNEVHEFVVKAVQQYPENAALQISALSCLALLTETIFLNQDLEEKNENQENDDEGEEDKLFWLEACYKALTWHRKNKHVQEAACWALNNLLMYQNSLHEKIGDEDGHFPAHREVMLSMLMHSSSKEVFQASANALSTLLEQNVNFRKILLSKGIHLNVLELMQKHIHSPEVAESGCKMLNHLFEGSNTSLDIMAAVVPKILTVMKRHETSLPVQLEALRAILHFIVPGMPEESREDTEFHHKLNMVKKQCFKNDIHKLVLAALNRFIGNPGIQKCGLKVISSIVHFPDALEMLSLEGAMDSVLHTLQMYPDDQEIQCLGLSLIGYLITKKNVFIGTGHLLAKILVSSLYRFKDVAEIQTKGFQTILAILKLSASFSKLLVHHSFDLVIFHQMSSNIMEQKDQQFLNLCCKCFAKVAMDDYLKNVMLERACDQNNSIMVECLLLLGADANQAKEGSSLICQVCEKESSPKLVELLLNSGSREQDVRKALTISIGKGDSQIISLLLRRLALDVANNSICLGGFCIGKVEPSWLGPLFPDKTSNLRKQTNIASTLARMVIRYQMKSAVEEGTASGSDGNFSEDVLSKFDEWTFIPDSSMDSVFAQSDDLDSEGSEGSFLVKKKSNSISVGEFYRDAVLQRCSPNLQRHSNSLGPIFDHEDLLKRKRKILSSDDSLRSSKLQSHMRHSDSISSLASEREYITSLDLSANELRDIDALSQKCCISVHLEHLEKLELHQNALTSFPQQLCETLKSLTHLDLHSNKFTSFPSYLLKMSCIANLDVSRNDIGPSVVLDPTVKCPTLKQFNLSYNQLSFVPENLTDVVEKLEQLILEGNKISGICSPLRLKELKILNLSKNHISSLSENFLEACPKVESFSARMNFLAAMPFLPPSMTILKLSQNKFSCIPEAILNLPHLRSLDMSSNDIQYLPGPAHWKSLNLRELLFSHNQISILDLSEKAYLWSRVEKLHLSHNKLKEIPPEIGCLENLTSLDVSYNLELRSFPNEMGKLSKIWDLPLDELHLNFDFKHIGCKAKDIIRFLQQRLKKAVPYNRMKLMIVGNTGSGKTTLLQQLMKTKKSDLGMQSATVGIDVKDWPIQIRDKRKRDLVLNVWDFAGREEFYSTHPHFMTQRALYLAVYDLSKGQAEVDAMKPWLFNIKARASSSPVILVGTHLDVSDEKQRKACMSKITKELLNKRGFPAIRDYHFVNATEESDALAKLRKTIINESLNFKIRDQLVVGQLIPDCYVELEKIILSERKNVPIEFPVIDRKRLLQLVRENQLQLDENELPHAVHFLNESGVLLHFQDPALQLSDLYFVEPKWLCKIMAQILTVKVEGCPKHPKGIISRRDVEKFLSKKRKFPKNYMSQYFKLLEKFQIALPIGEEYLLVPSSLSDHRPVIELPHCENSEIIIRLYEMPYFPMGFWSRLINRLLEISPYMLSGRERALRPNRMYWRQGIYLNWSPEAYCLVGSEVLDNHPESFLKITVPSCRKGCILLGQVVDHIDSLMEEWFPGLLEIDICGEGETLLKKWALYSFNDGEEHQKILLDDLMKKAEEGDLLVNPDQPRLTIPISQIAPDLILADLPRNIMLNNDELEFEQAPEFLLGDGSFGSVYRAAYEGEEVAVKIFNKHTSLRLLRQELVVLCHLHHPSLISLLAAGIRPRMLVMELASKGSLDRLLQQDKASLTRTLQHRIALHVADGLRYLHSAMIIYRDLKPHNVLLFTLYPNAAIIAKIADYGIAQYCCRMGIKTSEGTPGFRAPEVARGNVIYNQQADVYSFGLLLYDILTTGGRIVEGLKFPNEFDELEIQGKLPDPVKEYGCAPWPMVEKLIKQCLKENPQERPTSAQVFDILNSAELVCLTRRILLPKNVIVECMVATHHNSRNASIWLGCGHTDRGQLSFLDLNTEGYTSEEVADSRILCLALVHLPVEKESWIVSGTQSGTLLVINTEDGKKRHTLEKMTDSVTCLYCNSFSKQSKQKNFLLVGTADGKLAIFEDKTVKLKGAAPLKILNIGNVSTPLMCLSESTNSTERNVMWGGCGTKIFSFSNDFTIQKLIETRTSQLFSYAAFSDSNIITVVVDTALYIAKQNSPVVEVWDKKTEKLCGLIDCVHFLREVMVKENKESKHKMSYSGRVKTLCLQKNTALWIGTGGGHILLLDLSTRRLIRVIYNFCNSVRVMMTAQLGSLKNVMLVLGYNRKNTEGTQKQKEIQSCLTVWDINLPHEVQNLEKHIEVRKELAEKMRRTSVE
Sequence of Casein kinase II subunit alpha (Homo sapiens) (P68400 whole entry, looked up): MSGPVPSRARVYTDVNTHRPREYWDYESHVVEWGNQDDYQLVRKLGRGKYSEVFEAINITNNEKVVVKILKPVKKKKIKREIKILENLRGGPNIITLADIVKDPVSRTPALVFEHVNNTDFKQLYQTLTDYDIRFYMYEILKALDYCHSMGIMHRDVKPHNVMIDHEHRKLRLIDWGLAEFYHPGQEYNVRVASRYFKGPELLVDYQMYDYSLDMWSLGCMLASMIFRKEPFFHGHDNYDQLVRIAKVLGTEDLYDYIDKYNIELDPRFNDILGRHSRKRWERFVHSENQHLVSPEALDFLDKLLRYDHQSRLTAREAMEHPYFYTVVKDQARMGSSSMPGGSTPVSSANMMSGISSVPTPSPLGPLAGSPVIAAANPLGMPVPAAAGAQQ
Sequence of Serine/threonine-protein kinase 10 (Homo sapiens) (O94804 whole entry, looked up): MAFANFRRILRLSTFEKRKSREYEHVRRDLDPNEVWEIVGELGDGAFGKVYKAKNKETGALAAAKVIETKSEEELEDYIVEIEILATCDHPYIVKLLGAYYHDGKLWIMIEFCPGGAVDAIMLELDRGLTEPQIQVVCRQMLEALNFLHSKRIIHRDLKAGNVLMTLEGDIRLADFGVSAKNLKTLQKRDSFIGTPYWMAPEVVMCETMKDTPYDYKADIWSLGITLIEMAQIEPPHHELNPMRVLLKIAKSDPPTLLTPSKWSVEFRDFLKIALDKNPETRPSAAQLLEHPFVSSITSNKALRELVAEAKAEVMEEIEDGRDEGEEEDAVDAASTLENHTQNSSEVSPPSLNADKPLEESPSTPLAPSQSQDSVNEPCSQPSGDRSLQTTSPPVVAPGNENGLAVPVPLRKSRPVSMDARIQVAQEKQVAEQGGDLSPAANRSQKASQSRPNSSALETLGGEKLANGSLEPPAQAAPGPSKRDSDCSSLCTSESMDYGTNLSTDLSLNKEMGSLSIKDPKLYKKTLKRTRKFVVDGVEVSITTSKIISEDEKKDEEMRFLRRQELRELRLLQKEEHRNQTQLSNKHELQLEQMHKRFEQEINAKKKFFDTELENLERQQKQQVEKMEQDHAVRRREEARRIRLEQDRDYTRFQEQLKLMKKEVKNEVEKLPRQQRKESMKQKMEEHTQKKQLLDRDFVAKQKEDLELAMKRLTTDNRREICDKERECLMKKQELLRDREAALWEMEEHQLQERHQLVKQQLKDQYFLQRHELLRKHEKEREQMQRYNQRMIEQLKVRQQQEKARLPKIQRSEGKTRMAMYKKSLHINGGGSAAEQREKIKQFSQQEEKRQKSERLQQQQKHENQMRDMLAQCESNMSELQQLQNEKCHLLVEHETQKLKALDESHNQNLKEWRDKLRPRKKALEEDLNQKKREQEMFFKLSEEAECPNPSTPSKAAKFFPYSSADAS
Sequence of MAP kinase-activated protein kinase 2 (Homo sapiens) (P49137 whole entry, looked up): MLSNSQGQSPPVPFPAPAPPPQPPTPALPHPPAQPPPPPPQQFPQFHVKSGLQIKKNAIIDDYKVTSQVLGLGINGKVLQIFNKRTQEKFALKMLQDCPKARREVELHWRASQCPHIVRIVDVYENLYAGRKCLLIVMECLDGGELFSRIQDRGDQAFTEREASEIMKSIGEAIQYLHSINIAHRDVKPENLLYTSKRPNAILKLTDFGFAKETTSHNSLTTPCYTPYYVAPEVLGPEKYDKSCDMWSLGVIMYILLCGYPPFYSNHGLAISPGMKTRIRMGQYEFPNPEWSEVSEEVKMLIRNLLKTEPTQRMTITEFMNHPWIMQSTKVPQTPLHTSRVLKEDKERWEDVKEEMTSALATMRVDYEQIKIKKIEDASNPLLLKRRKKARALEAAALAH
Sequence of cGMP-dependent protein kinase 1 (Homo sapiens) (Q13976 whole entry): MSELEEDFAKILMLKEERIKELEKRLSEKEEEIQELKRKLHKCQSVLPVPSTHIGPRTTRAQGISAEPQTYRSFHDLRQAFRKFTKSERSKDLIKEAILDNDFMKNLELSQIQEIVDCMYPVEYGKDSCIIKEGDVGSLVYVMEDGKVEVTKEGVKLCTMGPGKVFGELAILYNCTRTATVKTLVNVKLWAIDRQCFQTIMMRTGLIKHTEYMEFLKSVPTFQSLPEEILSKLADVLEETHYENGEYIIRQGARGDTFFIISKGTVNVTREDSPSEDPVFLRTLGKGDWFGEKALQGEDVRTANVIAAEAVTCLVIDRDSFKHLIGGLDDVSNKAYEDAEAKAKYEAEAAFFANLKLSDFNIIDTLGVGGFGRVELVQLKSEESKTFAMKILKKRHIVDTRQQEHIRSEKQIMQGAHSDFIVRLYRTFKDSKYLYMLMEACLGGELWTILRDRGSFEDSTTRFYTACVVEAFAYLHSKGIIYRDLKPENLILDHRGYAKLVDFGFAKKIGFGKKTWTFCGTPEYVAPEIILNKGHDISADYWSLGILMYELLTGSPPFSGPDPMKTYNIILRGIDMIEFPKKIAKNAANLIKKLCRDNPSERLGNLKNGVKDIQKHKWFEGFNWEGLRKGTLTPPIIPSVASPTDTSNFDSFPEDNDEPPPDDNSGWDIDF

C[C@H](c1ccc(F)cc1)N(Cc1cccc(C(=O)O)c1)C(=O)c1cnc2ccccc2c1 [PF-05105679]
active: residual activity [1] 0%
inactive: residual activity [2] 89% | residual activity [3] 100% | residual activity [4] 100% | residual activity [5] 100% | residual activity [6] 88% | residual activity [7] 100% | residual activity [8] 100% | residual activity [9] 100% | residual activity [10] 85% | residual activity [11] 93% | residual activity [12] 89% | residual activity [13] 100% | residual activity [14] 93% | residual activity [15] 72% | residual activity [16] 100% | residual activity [17] 100% | residual activity [18] 100% | residual activity [19] 100% | residual activity [20] 82% | residual activity [21] 100% | residual activity [22] 100% | residual activity [23] 90% | residual activity [24] 100% | inhibition [25] -0.2% | inhibition [26] 2.04% | residual activity [27] 100% | residual activity [28] 100% | residual activity [29] 100% | residual activity [30] 81% | residual activity [31] 100% | residual activity [32] 100% | residual activity [33] 100% | residual activity [34] 100% | residual activity [35] 100% | residual activity [36] 79% | residual activity [37] 96% | residual activity [38] 100% | residual activity [39] 100% | residual activity [40] 100% | residual activity [41] 100% | residual activity [42] 100% | residual activity [43] 100% | residual activity [44] 100% | residual activity [45] 100%
